Results published in patent US20240180998A1, “MULTILAYERED PATCH” (KØBENHAVNS UNIVERSITET, priority 2021, published 2024).
In brackets after ≈: the same amount, converted by molar mass.

Experiments:
[1] = Drug loading of freeze-dried foam (disintegration of foam discs and quantification); type: physicochemical; conditions: for Loading efficiency (%): mean ± standard deviation
Experimental: The samples were incubated for 3 h at 37° C. and aliquots of 100 μL were withdrawn from each of the diffusion cells at specific time points and replenished with 100 μL warm (37° C.) hHBSS. The exact peptide dose was determined by disintegrating a 10 mm foam disc of known weight in 1 mL water for at least 1 h at RT. All samples were centrifuged (10,000 rpm/9279×g, 10 min, 4° C.) and the concentration of desmopressin in the supernatant was determined by reversed phase high performance liquid chromatography with UV detection (RP-HPLC-UV). Discs (10 mm in diameter) of NFF multilayered DDS were fixed in Ussing chamber […] […] 2 mL warm (37° C.) hHBSS without BSA pH 6.8 was added to each side of the sample. The samples were incubated for 3 h at 37° C. and aliquots of 100 μL were withdrawn from each of the diffusion cells at specific time points and replenished with 100 μl warm (37° C.) hHBSS without BSA pH 6.8.

C. albicans = conditions: Huang et al., 2020; cited from earlier work
[2] = Huang et al., 2020, cited from earlier work
[3] = drug loaded in foam, desmopressin at theoretical loading 29.13 μg/mg

## NC(=O)CC[C@@H]1NC(=O)[C@H](Cc2ccccc2)NC(=O)[C@H](Cc2ccc(O)cc2)NC(=O)CCSSC[C@@H](C(=O)N2CCC[C@H]2C(=O)N[C@H](CCCN=C(N)N)C(=O)NCC(N)=O)NC(=O)[C@H](CC(N)=O)NC1=O [Desmopressin]
[1]; desmopressin at theoretical loading 107.17 μg/mg
  Loading efficiency (%): 117 ± 1%
[1]; [3]
  Loading efficiency (%): 97 ± 1%
[1]; foam of NFF, discs of 10 mm
  specific loading of desmopressin: 28.2±0.2 μg per mg of foam

## Clc1ccccc1C(c1ccccc1)(c1ccccc1)n1ccnc1 [Clotrimazole]
[1]; [3]
  Loading efficiency (%): 110 ± 2%
C. albicans
  minimal fungicidal concentration (MFC): 4 µg/mL (≈ 11.6 µM)
  minimal inhibitory concentration (MIC): 1 µg/mL (≈ 2.9 µM)
[2]
  Log P: 6.3
[2]; in water
  aqueous solubility: 0.49 µg/mL (≈ 1.42 µM)
